Active and inactive are the calls of the source. How the calls were made is not given here.
System: CCRIS mutagenicity, Ames/micronucleus/aberration tests
Experiment: CCRIS mutagenicity studies
[1] = Test System: AMES SALMONELLA TYPHIMURIUM, Strain/Indicator: TA98, Metabolic Activation: NONE, Method: STANDARD PLATE
[2] = Test System: AMES SALMONELLA TYPHIMURIUM, Strain/Indicator: TA98, Metabolic Activation: RAT, LIVER, S-9, AROCLOR 1254, Method: STANDARD PLATE

O=C1c2cc(S(=O)(=O)O)ccc2C(=O)c2c1cccc2[N+](=O)[O-]
mutagenic call [1]: active; positive
mutagenic call [2]: active; positive
mutagenic call (Test System: AMES SALMONELLA TYPHIMURIUM, Strain/Indicator: TA100, Metabolic Activation: RAT, LIVER, S-9, AROCLOR 1254, Method: STANDARD PLATE): inactive; negative
mutagenic call (Test System: AMES SALMONELLA TYPHIMURIUM, Strain/Indicator: TA1535, Metabolic Activation: NONE, Method: STANDARD PLATE): inactive; negative
mutagenic call (Test System: AMES SALMONELLA TYPHIMURIUM, Strain/Indicator: TA1535, Metabolic Activation: RAT, LIVER, S-9, AROCLOR 1254, Method: STANDARD PLATE): inactive; negative
mutagenic call (Test System: AMES SALMONELLA TYPHIMURIUM, Strain/Indicator: TA1537, Metabolic Activation: NONE, Method: STANDARD PLATE): active; positive
mutagenic call (Test System: AMES SALMONELLA TYPHIMURIUM, Strain/Indicator: TA1537, Metabolic Activation: RAT, LIVER, S-9, AROCLOR 1254, Method: STANDARD PLATE): active; positive
mutagenic call (Test System: AMES SALMONELLA TYPHIMURIUM, Strain/Indicator: TA1538, Metabolic Activation: NONE, Method: STANDARD PLATE): active; positive
mutagenic call (Test System: AMES SALMONELLA TYPHIMURIUM, Strain/Indicator: TA1538, Metabolic Activation: RAT, LIVER, S-9, AROCLOR 1254, Method: STANDARD PLATE): active; positive

O=C1Cc2cc3cc([N+](=O)[O-])ccc3cc2[C@H](O)[C@H]1O
mutagenic call [1]: inactive; negative
mutagenic call [2]: inactive; negative

O=C1CCCCCCCCCCCC(=O)OCCO1
mutagenic call (Test System: AMES SALMONELLA TYPHIMURIUM, Strain/Indicator: TA98, Metabolic Activation: NONE, Method: PREINCUBATION): inactive; negative
mutagenic call (Test System: AMES SALMONELLA TYPHIMURIUM, Strain/Indicator: TA98, Metabolic Activation: RAT, LIVER, S-9, SODIUM PHENOBARBITAL AND 5,6-BENZOFLAVONE, Method: PREINCUBATION): inactive; negative
mutagenic call (Test System: AMES SALMONELLA TYPHIMURIUM, Strain/Indicator: TA100, Metabolic Activation: NONE, Method: PREINCUBATION): inactive; negative
mutagenic call (Test System: AMES SALMONELLA TYPHIMURIUM, Strain/Indicator: TA100, Metabolic Activation: RAT, LIVER, S-9, SODIUM PHENOBARBITAL AND 5,6-BENZOFLAVONE, Method: PREINCUBATION): inactive; negative
mutagenic call (Test System: AMES SALMONELLA TYPHIMURIUM, Strain/Indicator: TA102, Metabolic Activation: NONE, Method: PREINCUBATION): inactive; negative
mutagenic call (Test System: AMES SALMONELLA TYPHIMURIUM, Strain/Indicator: TA102, Metabolic Activation: RAT, LIVER, S-9, SODIUM PHENOBARBITAL AND 5,6-BENZOFLAVONE, Method: PREINCUBATION): inactive; negative
mutagenic call (Test System: AMES SALMONELLA TYPHIMURIUM, Strain/Indicator: TA104, Metabolic Activation: NONE, Method: PREINCUBATION): inactive; negative
mutagenic call (Test System: AMES SALMONELLA TYPHIMURIUM, Strain/Indicator: TA104, Metabolic Activation: RAT, LIVER, S-9, SODIUM PHENOBARBITAL AND 5,6-BENZOFLAVONE, Method: PREINCUBATION): inactive; negative
mutagenic call (Test System: AMES SALMONELLA TYPHIMURIUM, Strain/Indicator: TA1535, Metabolic Activation: NONE, Method: PREINCUBATION): inactive; negative
mutagenic call (Test System: AMES SALMONELLA TYPHIMURIUM, Strain/Indicator: TA1535, Metabolic Activation: RAT, LIVER, S-9, SODIUM PHENOBARBITAL AND 5,6-BENZOFLAVONE, Method: PREINCUBATION): inactive; negative
mutagenic call (Test System: AMES SALMONELLA TYPHIMURIUM, Strain/Indicator: TA1537, Metabolic Activation: NONE, Method: PREINCUBATION): inactive; negative
mutagenic call (Test System: AMES SALMONELLA TYPHIMURIUM, Strain/Indicator: TA1537, Metabolic Activation: RAT, LIVER, S-9, SODIUM PHENOBARBITAL AND 5,6-BENZOFLAVONE, Method: PREINCUBATION): inactive; negative
mutagenic call (Test System: E. COLI, Strain/Indicator: WP2UVRA/PKM101, Metabolic Activation: NONE, Method: PREINCUBATION): inactive; negative
mutagenic call (Test System: E. COLI, Strain/Indicator: WP2UVRA/PKM101, Metabolic Activation: RAT, LIVER, S-9, SODIUM PHENOBARBITAL AND 5,6-BENZOFLAVONE, Method: PREINCUBATION): inactive; negative
mutagenic call (Test System: E. COLI, Strain/Indicator: WP2UVRA, Metabolic Activation: NONE, Method: PREINCUBATION): inactive; negative
mutagenic call (Test System: E. COLI, Strain/Indicator: WP2UVRA, Metabolic Activation: RAT, LIVER, S-9, SODIUM PHENOBARBITAL AND 5,6-BENZOFLAVONE, Method: PREINCUBATION): inactive; negative

Reference: PubChem BioAssay AID1259407 (Chemical Carcinogenesis Research Information System (CCRIS), 2018)
